Laboratory results reported in the kinase profiling compilation of Christmann-Franck et al. (2016).
Several values for one entry are separate records, joined by “and”; a condition that tells them apart may be missing. Equal entries are not always repeated.

What was measured:
Assay in all cases: radiometric filter-binding kinase assay, Kinase HotSpot
Conditions in all cases: compound 0.5 µM; ATP 10 µM
TTK (human) = TTK (human) (UniProt P33981)
CAMK1D (human) = CAMK1D (human) (UniProt Q8IU85)
PAK1 (human) = PAK1 (human) (UniProt Q13153)
FER (human) = FER (human) (UniProt P16591)
DYRK1A (human) = DYRK1A (human) (UniProt Q13627)
MAPK10 (human) = MAPK10 (human) (UniProt P53779)
MKNK2 (human) = MKNK2 (human) (UniProt Q9HBH9)
FGFR2 (human) = FGFR2 (human) (UniProt P21802)
PKN1 (human) = PKN1 (human) (UniProt Q16512)
[1] = target: TYK2 JH1 catalytic (human) (UniProt P29597)
RAF1 (human) = RAF1 (human) (UniProt P04049)
PRKCA (human) = PRKCA (human) (UniProt P17252)
NEK4 (human) = NEK4 (human) (UniProt P51957)
FYN (human) = FYN (human) (UniProt P06241)
AKT1 (human) = AKT1 (human) (UniProt P31749)
LYN (human) = LYN (human) (UniProt P07948)
MAPK14 (human) = MAPK14 (human) (UniProt Q16539)
CDK7 CCNH MNAT1 (human) = CDK7 CCNH MNAT1 (human) (UniProt P50613+P51948+P51946)
MAPK8 (human) = MAPK8 (human) (UniProt P45983)
CAMKK2 (human) = CAMKK2 (human) (UniProt Q96RR4)
[2] = system: PRKCQ (human), Q04759 [P330L]
CDK5 CDK5R1 p35 (human) = CDK5 CDK5R1 p35 (human) (UniProt Q00535+Q15078)
FGFR3 (human) = FGFR3 (human) (UniProt P22607)
CAMKK1 (human) = CAMKK1 (human) (UniProt Q8N5S9)
PIM3 (human) = PIM3 (human) (UniProt Q86V86)
DAPK3 (human) = DAPK3 (human) (UniProt O43293)
RPS6KA2 KD1 KD2 (human) = RPS6KA2 KD1 KD2 (human) (UniProt Q15349)
MST1R (human) = MST1R (human) (UniProt Q04912)
CDK2 CCNE1 (human) = CDK2 CCNE1 (human) (UniProt P24941+P24864)
JAK2 JH1 JH2 (human) = JAK2 JH1 JH2 (human) (UniProt O60674)
CSNK1G3 (human) = CSNK1G3 (human) (UniProt Q9Y6M4)
NTRK2 (human) = NTRK2 (human) (UniProt Q16620)
CSNK1A1 (human) = CSNK1A1 (human) (UniProt P48729)
CAMK2A (human) = CAMK2A (human) (UniProt Q9UQM7)
STK33 (human) = STK33 (human) (UniProt Q9BYT3)
FLT1 (human) = FLT1 (human) (UniProt P17948)
PRKCG (human) = PRKCG (human) (UniProt P05129)
DYRK2 (human) = DYRK2 (human) (UniProt Q92630)
EPHB4 (human) = EPHB4 (human) (UniProt P54760)
PRKCB2 (human) = PRKCB2 (human) (UniProt P05771)
MAPK1 (human) = MAPK1 (human) (UniProt P28482)
Chain of MAPK1 (human) (P28482 whole entry, looked up): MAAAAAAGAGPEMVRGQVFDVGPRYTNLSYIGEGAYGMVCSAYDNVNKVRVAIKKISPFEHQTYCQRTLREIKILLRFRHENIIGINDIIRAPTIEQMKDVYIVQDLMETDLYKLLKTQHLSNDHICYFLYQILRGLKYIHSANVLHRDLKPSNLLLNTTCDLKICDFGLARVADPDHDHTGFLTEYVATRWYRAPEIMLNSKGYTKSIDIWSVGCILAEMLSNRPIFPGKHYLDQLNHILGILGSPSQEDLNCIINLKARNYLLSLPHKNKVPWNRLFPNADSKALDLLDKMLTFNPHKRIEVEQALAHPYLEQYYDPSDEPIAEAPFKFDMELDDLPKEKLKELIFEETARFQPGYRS

Chain of CSNK1A1 (human) (P48729 whole entry, looked up): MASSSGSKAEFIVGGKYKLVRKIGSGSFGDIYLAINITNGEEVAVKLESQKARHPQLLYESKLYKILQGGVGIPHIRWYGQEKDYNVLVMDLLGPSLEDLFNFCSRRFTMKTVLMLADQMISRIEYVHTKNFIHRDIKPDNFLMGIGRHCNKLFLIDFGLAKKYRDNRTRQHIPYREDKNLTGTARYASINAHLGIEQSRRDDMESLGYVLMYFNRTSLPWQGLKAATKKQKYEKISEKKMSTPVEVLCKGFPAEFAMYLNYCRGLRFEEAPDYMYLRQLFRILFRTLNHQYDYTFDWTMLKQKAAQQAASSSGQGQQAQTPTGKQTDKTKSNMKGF
Chain of FYN (human) (P06241 whole entry, looked up): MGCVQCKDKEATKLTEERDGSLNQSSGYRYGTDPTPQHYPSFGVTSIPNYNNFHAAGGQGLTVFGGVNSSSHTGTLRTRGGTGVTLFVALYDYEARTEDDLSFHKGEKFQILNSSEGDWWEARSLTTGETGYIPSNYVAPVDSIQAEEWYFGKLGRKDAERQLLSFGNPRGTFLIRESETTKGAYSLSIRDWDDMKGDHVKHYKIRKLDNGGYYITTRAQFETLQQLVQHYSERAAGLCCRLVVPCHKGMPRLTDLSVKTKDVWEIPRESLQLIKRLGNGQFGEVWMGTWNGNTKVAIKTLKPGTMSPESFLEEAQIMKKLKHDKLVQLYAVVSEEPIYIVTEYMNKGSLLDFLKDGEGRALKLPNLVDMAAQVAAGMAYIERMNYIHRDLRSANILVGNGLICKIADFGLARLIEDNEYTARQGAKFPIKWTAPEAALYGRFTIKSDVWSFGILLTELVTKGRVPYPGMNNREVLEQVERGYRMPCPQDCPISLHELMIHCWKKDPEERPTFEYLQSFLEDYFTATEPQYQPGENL
Chain of PRKCQ (human), Q04759 [P330L] (Q04759 whole entry P330L, looked up): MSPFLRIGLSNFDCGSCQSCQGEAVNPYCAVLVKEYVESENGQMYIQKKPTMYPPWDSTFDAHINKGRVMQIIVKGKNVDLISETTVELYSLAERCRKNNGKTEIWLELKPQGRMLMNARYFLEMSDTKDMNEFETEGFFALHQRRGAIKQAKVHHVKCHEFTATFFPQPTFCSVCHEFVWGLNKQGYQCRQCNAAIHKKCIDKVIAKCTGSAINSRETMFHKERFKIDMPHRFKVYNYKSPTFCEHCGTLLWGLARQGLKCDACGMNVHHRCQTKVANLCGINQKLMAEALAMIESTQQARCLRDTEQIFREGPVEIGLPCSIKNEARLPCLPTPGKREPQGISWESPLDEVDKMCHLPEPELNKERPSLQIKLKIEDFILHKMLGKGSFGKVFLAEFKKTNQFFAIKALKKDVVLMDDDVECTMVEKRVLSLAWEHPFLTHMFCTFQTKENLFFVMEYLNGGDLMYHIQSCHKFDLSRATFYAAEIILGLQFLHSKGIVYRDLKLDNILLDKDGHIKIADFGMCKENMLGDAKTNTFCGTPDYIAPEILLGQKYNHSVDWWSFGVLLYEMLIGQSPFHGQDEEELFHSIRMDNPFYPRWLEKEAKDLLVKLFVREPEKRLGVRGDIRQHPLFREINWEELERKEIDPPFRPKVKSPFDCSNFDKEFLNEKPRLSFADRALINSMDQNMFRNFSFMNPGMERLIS
Chain of STK33 (human) (Q9BYT3 whole entry, looked up): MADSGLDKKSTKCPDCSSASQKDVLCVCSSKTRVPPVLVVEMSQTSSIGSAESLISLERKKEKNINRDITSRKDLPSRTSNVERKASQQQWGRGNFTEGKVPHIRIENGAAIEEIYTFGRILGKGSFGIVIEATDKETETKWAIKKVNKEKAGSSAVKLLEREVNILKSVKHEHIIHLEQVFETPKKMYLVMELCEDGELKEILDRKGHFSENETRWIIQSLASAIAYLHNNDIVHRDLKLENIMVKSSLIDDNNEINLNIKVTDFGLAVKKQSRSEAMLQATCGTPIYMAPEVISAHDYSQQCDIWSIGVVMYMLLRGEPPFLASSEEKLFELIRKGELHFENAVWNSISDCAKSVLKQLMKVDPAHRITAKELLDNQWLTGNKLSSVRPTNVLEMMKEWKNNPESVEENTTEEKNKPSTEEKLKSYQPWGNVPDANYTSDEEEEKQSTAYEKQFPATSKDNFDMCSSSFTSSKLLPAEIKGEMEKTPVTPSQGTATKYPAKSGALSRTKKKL
Chain of DYRK2 (human) (Q92630 whole entry, looked up): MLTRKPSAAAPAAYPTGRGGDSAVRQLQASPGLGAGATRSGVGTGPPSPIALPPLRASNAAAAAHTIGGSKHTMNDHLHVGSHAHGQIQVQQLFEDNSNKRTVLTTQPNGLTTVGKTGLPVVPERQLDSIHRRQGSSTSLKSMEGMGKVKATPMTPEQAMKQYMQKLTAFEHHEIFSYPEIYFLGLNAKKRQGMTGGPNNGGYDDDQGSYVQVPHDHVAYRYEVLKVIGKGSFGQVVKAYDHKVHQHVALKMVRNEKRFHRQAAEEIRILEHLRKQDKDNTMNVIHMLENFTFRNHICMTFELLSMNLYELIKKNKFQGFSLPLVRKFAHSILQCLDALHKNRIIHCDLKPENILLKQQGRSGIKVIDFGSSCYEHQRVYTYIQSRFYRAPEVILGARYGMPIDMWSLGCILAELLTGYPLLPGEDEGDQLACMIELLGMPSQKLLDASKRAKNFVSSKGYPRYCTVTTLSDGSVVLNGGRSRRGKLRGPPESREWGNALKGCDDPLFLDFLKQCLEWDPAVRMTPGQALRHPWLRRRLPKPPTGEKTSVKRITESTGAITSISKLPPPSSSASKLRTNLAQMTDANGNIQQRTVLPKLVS
Chain of MKNK2 (human) (Q9HBH9 whole entry, looked up): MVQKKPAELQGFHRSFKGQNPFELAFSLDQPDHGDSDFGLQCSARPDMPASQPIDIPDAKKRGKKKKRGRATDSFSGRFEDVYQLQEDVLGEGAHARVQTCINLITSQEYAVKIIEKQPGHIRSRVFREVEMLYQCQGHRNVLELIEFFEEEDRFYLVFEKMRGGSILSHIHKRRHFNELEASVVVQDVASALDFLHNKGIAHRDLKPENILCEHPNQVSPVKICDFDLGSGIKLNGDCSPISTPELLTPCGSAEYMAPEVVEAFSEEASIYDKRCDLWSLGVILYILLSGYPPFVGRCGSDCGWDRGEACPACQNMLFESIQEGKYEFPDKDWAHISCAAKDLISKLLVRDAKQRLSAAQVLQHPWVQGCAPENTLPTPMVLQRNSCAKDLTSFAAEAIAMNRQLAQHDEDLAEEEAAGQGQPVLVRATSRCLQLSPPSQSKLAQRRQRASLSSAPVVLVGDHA
Chain of CDK2 CCNE1 (human) (P24864 whole entry, looked up, other chains not shown): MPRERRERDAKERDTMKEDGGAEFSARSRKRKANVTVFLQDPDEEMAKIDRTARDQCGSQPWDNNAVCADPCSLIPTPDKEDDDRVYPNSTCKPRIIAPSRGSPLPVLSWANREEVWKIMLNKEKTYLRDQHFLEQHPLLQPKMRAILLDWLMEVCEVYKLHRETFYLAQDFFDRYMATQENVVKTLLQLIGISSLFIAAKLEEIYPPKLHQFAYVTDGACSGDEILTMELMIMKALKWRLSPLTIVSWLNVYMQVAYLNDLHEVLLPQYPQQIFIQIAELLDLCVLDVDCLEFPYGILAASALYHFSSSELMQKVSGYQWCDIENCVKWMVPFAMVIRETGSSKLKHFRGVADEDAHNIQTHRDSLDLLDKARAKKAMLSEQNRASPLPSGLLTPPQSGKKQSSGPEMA
Chain of PRKCB2 (human) (P05771 whole entry, looked up): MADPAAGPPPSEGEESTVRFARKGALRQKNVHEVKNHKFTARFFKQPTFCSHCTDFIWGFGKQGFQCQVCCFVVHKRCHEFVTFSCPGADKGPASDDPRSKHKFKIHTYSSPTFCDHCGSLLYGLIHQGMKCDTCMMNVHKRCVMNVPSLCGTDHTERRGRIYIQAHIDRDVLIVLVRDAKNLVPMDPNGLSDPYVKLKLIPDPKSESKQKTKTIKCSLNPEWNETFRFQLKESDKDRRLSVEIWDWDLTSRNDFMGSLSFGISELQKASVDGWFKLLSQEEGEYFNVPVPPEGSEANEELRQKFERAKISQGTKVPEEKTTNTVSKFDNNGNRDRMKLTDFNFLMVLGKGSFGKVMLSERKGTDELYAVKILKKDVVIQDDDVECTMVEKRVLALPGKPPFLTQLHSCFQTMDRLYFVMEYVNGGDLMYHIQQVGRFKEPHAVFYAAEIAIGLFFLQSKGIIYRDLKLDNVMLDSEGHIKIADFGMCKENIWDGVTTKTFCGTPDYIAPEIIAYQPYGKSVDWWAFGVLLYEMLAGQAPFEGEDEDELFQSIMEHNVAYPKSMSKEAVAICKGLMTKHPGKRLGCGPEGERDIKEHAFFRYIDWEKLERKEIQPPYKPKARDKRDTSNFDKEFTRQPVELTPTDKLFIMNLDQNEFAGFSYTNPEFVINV
Chain of MAPK14 (human) (Q16539 whole entry, looked up): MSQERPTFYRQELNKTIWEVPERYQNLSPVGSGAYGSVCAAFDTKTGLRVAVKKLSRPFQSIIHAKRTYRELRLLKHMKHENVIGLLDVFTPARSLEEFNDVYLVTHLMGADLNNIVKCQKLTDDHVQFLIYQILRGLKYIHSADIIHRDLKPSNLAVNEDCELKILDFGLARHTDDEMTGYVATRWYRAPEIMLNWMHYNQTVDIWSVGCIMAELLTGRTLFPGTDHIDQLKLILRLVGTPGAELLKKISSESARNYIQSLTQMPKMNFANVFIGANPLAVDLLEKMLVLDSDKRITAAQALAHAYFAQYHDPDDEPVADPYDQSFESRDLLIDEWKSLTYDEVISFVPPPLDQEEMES

c1ccc2c(-c3ccncc3)c[nH]c2c1
residual activity (TTK (human)): 112% | residual activity (CAMK1D (human)): 107% | residual activity (PAK1 (human)): 99.1% | residual activity (FER (human)): 91.6% | residual activity (DYRK1A (human)): 77.6% | residual activity (MAPK10 (human)): 102% | residual activity (MKNK2 (human)): 39.2% | residual activity (FGFR2 (human)): 105% | residual activity (PKN1 (human)): 66.4% | residual activity [1]: 101% | residual activity (RAF1 (human)): 93.2% | residual activity (PRKCA (human)): 97.4% | residual activity (NEK4 (human)): 95.4% | residual activity (FYN (human)): 98.7% | residual activity (AKT1 (human)): 100% | residual activity (LYN (human)): 100% and 102% | residual activity (MAPK14 (human)): 104% | residual activity (CDK7 CCNH MNAT1 (human)): 97% | residual activity (MAPK8 (human)): 100% | residual activity (CAMKK2 (human)): 113% | residual activity [2]: 125% | residual activity (CDK5 CDK5R1 p35 (human)): 96% | residual activity (FGFR3 (human)): 98.9% | residual activity (CAMKK1 (human)): 122% | residual activity (PIM3 (human)): 103% | residual activity (DAPK3 (human)): 101% | residual activity (RPS6KA2 KD1 KD2 (human)): 89% | residual activity (MST1R (human)): 98.9% | residual activity (CDK2 CCNE1 (human)): 91.7% | residual activity (JAK2 JH1 JH2 (human)): 93.8% | residual activity (CSNK1G3 (human)): 108% | residual activity (NTRK2 (human)): 107% | residual activity (CSNK1A1 (human)): 100% | residual activity (CAMK2A (human)): 104% | residual activity (STK33 (human)): 97.3% | residual activity (FLT1 (human)): 97.9% | residual activity (PRKCG (human)): 99.4% | residual activity (DYRK2 (human)): 77.5% | residual activity (EPHB4 (human)): 89.7% | residual activity (PRKCB2 (human)): 89.5% | residual activity (MAPK1 (human)): 100%

CS(=O)(=O)CCNCc1ccc(-c2ccc3ncnc(Nc4ccc(OCc5cccc(F)c5)c(Cl)c4)c3c2)o1
residual activity (TTK (human)): 102% | residual activity (CAMK1D (human)): 104% | residual activity (PAK1 (human)): 110% | residual activity (FER (human)): 94.6% | residual activity (DYRK1A (human)): 101% | residual activity (MAPK10 (human)): 100% | residual activity (MKNK2 (human)): 97.3% | residual activity (FGFR2 (human)): 96.4% | residual activity (PKN1 (human)): 106% | residual activity [1]: 95.5% | residual activity (RAF1 (human)): 85.9% | residual activity (PRKCA (human)): 83% | residual activity (NEK4 (human)): 98.1% | residual activity (FYN (human)): 99.4% | residual activity (AKT1 (human)): 95.6% | residual activity (LYN (human)): 103% and 104% | residual activity (MAPK14 (human)): 101% | residual activity (CDK7 CCNH MNAT1 (human)): 109% | residual activity (MAPK8 (human)): 91.9% | residual activity (CAMKK2 (human)): 101% | residual activity [2]: 72.4% | residual activity (CDK5 CDK5R1 p35 (human)): 103% | residual activity (FGFR3 (human)): 96.7% | residual activity (CAMKK1 (human)): 98.8% | residual activity (PIM3 (human)): 93.7% | residual activity (DAPK3 (human)): 97.4% | residual activity (RPS6KA2 KD1 KD2 (human)): 84% | residual activity (MST1R (human)): 92.2% | residual activity (CDK2 CCNE1 (human)): 98.8% | residual activity (JAK2 JH1 JH2 (human)): 101% | residual activity (CSNK1G3 (human)): 104% | residual activity (NTRK2 (human)): 98.8% | residual activity (CSNK1A1 (human)): 104% | residual activity (CAMK2A (human)): 98.6% | residual activity (STK33 (human)): 94.7% | residual activity (FLT1 (human)): 100% | residual activity (PRKCG (human)): 79.3% | residual activity (DYRK2 (human)): 102% | residual activity (EPHB4 (human)): 94.1% | residual activity (PRKCB2 (human)): 99.8% | residual activity (MAPK1 (human)): 102%

Cc1nc(-c2ccccc2)c(-c2ccncc2)o1
residual activity (TTK (human)): 100% | residual activity (CAMK1D (human)): 93.9% | residual activity (PAK1 (human)): 98.7% | residual activity (FER (human)): 84.9% | residual activity (DYRK1A (human)): 98.4% | residual activity (MAPK10 (human)): 101% | residual activity (MKNK2 (human)): 90.5% | residual activity (FGFR2 (human)): 108% | residual activity (PKN1 (human)): 101% | residual activity [1]: 109% | residual activity (RAF1 (human)): 92.6% | residual activity (PRKCA (human)): 98.3% | residual activity (NEK4 (human)): 100% | residual activity (FYN (human)): 99.8% | residual activity (AKT1 (human)): 102% | residual activity (LYN (human)): 104% and 97.4% | residual activity (MAPK14 (human)): 76.3% | residual activity (CDK7 CCNH MNAT1 (human)): 109% | residual activity (MAPK8 (human)): 99.5% | residual activity (CAMKK2 (human)): 105% | residual activity [2]: 120% | residual activity (CDK5 CDK5R1 p35 (human)): 104% | residual activity (FGFR3 (human)): 95.6% | residual activity (CAMKK1 (human)): 123% | residual activity (PIM3 (human)): 106% | residual activity (DAPK3 (human)): 101% | residual activity (RPS6KA2 KD1 KD2 (human)): 93% | residual activity (MST1R (human)): 95.9% | residual activity (CDK2 CCNE1 (human)): 93.4% | residual activity (JAK2 JH1 JH2 (human)): 98.4% | residual activity (CSNK1G3 (human)): 104% | residual activity (NTRK2 (human)): 103% | residual activity (CSNK1A1 (human)): 86.4% | residual activity (CAMK2A (human)): 104% | residual activity (STK33 (human)): 99.3% | residual activity (FLT1 (human)): 79.4% | residual activity (PRKCG (human)): 101% | residual activity (DYRK2 (human)): 98.6% | residual activity (EPHB4 (human)): 84.8% | residual activity (PRKCB2 (human)): 88.4% | residual activity (MAPK1 (human)): 90.3%
